Measured values reported in US20070161628A1, “Phosphodiesterase inhibitors” (GREENPHARMA, priority 2004, published 2007).

Assays:
[1] = target: T1, human type 2 phosphodiesterase (source: U-937 cells) (Homo sapiens, UniProt O00408); test: Inhibition of PDE2; assay type: biochemical; details: substrate 1 μM, 30 minutes at 30° C.
T1 construct: human type 2 phosphodiesterase (source: U-937 cells); endogenous in cells; host or cells: U-937 cells
Protocol: This novel family of compounds was tested as inhibitor of human type 2 phosphodiesterase (source: U-937 cells) by following the process described by Torphy, T. J., Zhou, H. L. and Cieslinski, L. B. (J. Pharmacol. Exp. Ther., 1992, 263, 1195-1205). […] A quantitative measurement of the hydrolysis product [^3H]-5′-AMP was determined by scintillation.

[2] = test system: TNF-alpha in peripheral blood mononuclear cells (PBMC); test: Anti-inflammatory properties: TNF-alpha in LPS-activated PBMC; assay type: cell-based; details: LPS 1 μg/ml, 24 hours, EIA
Protocol: The compounds according to the invention were evaluated for their anti-inflammatory properties on peripheral blood mononuclear cells (PBMC). More particularly, the cells were incubated for 24 hours in the presence of the test molecule, after activation with lipopolysaccharide (LPS) (1 μg/ml) according to the protocol described by Schindler, R., Mancilla, J., Endres, S., Ghorbani, R., Clark, S. C. and Dinarello, C. A. (Blood, 1990, 75, 40-47). After incubation, the concentrations of TNF-alpha were measured in the culture supernatants by the EIA method.

[3] = test system: PDE1 (bovine); test: Selectivity towards PDE1; assay type: biochemical; details: substrate [3H]cAMP+cAMP 1 μM, 30 minutes at 30° C.
Protocol: (§1) D., JACKMAN S. A. and WILKE R. (Brit. J. Pharmacol. 1989, 97, 889-897); (ii, PDE3 and PDE5) Weishaar, R. E., Burrows, S. D., Kobylarz, D. C., Quade, M. M. and Evans, D. B. (Biochem. Pharmacol., 1986, 35, 787-800); (iii, PDE6) Ballard, A. S., Gingell, C. J., Tang, K., Turner, L. A., PRICE, M. E. (J. Urol, 1998, 159, 2164-2171). […] In the case of PDE 5 and 6, the substrate used is ([^3H]cGMP+cGMP) at a concentration of 1 μM for PDE5 and 2 μM for PDE6. A quantitative measurement of the hydrolysis products [^3H]-5′-AMP and [^3H]-5′-GMP was determined by scintillation.

[4] = test system: primary neuron cultures (foetal rat cerebral cortex); test: Stimulation of neurotrophic factors: primary neuron cultures observed with and without compound; assay type: cell-based
Protocol: The neurons are cultured in neurobasal medium using foetal rat cerebral cortex according to the procedure described in Example 1 and are photographed without staining 17 days after culturing. Culture A is a control culture without compound. […] Compounds according to the invention were evaluated for their neurotrophic properties. The idea is thus to observe the behaviour of a neuron cell culture in the absence and presence of such molecules. The molecule used in this example is S-tofisopam. The adult animals are coupled and the female rats are separated out the next day. After 16 days, a caesarean section is performed on the gestating female rats and the foetuses are placed in a Petri dish 100 mm in diameter. They are transferred to a laminar flow fume cupboard, in sterile medium. The foetuses are individually isolated and are dissected under a binocular magnifying glass in sterile medium. The cerebral cortex is isolated and placed in a tube containing antibiotic-free neurobasal medium. The tissue is dissociated by suction-ejection, into individual cells in a volume of 2 ml. The cell suspension is then delicately deposited on 2-ml of inactivated foetal calf serum. The tube is centrifuged at low gravity (800 g) for 5 minutes at room temperature. The cell pellet is recovered and the cells are resuspended in complete neurobasal medium. The cells are counted using a Mallassez haematimeter in the presence of trypan blue to determine the cell viability. Culturing is performed by placing 800 000 cells in Petri dishes 60 mm in diameter containing complete neurobasal medium, preheated and equilibrated in a CO2 incubator. These dishes were lined beforehand with a polylysine coat the day before the manipulation. The incubator temperature is set at 37° C., the CO2 level at 5% and the humidity is saturating. The Petri dishes containing the cells are then placed in the incubator. […] These cultures constitute primary neuron cultures. The neuron cultures as prepared above serve as controls. Five dishes are used in order to have a statistical approach. In the other dishes, the test molecule is added at different concentrations: 0.1 μmol/l, 1 μmol/l and 10 μmol/l. In each case, the manipulation is repeated 5 times. The neurons are examined by inverted phase-contrast microscope (Zeiss Axiovert 135) every day after inoculation. The neurons are photographed at various magnifications using a photography camera and are compared between series.

[5] = test system: PDE3 (human); test: Selectivity towards PDE3; assay type: biochemical; details: PDE1, 3, 5 and 6
Protocol: as §1

[6] = test system: primary cultures of rat motor neuron embryonic cells; test: Neuroprotective effect, apoptosis induced by suppression of BDNF; assay type: cell-based; details: 1 μM; apoptosis induced by BDNF deprivation
Protocol: This test was performed according to the protocol described by Estevez A. G. et al. (J. Neurosci. 1998, 18(3), 923-931). Briefly, when primary cultures of rat motor neuron embryonic cells are deprived of “brain-derived neurotrophic factor” (BDNF), an induction of neuronal “nitric oxide synthase” (NOS) was observed, resulting in the gradual death of the neurons by apoptosis: between 18 and 24 hours after making the biological preparation, more than 60% of the neurons die. In this model of induced apoptosis, the compound described in Example 1 (S-tofisopam and analogues) protects the neurons by more than 50% at a concentration of 1 μM.

[7] = test system: trabecular bone; test: Microarchitecture and study of bone markers in mice; assay type: in vivo, C57BL6 mice; details: 5 mg/kg per day, 5 days per week, 4 weeks, subcutaneous; for effect on the bone quantity and microarchitecture (BV/TV, Tb.N): distal metaphysis of the femur, microQCT
Protocol: The object is to test the effect of the components described above on the microarchitecture of the trabecular bone. […] Results on the Bone Microarchitecture • No significant difference between the groups at the start of the treatment. No significant difference between the control (base) group and the Sham group. All the significant differences are represented by an *, *p<0.05; **p<0.01 • Several parameters (10) are recorded and analysed, such as: • BV/TV: represents the bone volume of the trabecular bone to the tissue volume, • Tb.N: trabecular number. The trabecular bone volume (BV/TV, %) and the trabecular number (Tb.N) are calculated via the “Mean Intercept Length (MIL)” method. The trabecular thickness (Tb.Th) and the trabecular space (Tb.Sp) are calculated via the method described by Hildebrand & Ruegsegger (Journal of Microscopy. 185:67-75, 1997). • BV/TV: FIG. 5 • Tb.N: FIG. 6 CONCLUSION

[8] = test system: human type 4 phosphodiesterase (source: U-937 cells); test: Inhibition of PDE4
Protocol: A quantitative measurement of the hydrolysis product [^3H]-5′-AMP was determined by scintillation.

T1 sequence (O00408 whole entry): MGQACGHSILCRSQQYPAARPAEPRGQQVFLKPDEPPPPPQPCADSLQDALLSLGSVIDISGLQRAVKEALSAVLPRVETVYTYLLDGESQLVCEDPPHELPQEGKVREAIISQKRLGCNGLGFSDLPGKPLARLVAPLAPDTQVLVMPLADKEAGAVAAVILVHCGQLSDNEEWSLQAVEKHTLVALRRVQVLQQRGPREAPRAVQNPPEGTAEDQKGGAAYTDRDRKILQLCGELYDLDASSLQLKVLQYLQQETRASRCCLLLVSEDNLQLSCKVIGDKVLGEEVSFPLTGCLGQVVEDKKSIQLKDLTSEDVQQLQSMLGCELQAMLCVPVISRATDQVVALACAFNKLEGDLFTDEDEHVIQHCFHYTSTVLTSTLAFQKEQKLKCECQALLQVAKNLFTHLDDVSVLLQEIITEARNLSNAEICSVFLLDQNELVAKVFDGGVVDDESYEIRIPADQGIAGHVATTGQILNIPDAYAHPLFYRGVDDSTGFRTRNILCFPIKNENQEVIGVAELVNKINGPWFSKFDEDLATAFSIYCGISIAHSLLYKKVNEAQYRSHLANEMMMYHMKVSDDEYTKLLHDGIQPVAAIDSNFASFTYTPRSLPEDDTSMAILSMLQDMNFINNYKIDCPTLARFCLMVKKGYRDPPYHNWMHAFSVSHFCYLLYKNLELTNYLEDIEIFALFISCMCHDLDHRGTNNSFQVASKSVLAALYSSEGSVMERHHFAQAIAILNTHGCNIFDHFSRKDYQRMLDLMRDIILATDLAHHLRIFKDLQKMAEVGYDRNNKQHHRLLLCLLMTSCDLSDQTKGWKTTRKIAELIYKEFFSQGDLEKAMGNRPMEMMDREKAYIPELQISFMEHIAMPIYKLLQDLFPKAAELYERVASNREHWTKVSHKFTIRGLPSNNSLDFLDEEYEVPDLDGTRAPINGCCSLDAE

**Q.** With `CCCCCC[C@@H]([C@@H](C)O)n1cnc2c(N)ncnc21` (racemic) [EHNA, reference compound] as the compound, how does the IC50 [1] read?
**A.** The IC50 was 2100 nM.

**Q.** For `C[C@@H]1C[C@H]2[C@@H]3CCC4=CC(=O)C=C[C@]4(C)[C@@]3(F)[C@@H](O)C[C@]2(C)[C@@]1(O)C(=O)CO` [dexamethasone, reference compound], which IC50 [2] is on record?
**A.** The IC50 was 4600 nM.

**Q.** With `CCOc1cc2c(cc1OCC)C(CC)C(C)=NN=C2c1ccc(OC)c(OC)c1` (racemic) as the compound, how does the melting point read?
**A.** The melting point was 91 to 93 °C.

**Q.** For `COCc1nc2c([nH]1)c(=O)n(C)c(=O)n2CC(C)C` [8-methoxy-IBMX], which IC50 [3] is on record?
**A.** The IC50 was 2900 nM.

**Q.** Which “density of the neurites with added astrocyte culture supernatant” value ([4]; astrocyte culture supernatant added, compared with control) does the source give for `CC[C@@H]1C(C)=NN=C(c2ccc(OC)c(OC)c2)c2cc(OC)c(OC)cc21` [S-tofisopam, (5S)-1-(3,4-dimethoxyphenyl)-5-ethyl-7,8-dimethoxy-4-methyl-5H-2,3-benzodiazepine] here?
**A.** The value was “increasing the density of the neurites”.

**Q.** And the “cell survival: time treated neurons remain alive after application” value ([4]; control: all neurons disappeared after 15 days)?
**A.** The value was “almost four weeks”.

**Q.** What about the “neurotrophic and neuroprotective role in neuron culture” value ([4]; overall conclusion) of the same compound?
**A.** The value was “not only a neurotrophic role but also a neuroprotective role”.

**Q.** What about the “growth of the neurites versus control” value ([4]; primary neuron culture, test concentrations 0.1, 1 and 10 μmol/l (FIG. 1: 50 μM added on day 8)) of the same compound?
**A.** The value was “greater growth of the neurites than in the cells used as control”.

**Q.** And the IC50 [1]?
**A.** The IC50 was 500 nM.

**Q.** What about the “inhibition of the other PDEs, especially PDE3, compared with PDE4 or PDE2” value [5] of the same compound?
**A.** Its value is “more weakly”.

**Q.** What about the IC50 [2] of the same compound?
**A.** Its IC50 is 1 to 100 nM.

**Q.** What about the “protection of the neurons” value [6] of the same compound?
**A.** Its value is “more than 50%”.

**Q.** And the “markers and cellular activity: effect on bone formation and bone resorption” value [7]?
**A.** Its value is “uncoupling effect: anabolic on bone formation, inhibitory on bone resorption”.

**Q.** And the “effect on the bone quantity and microarchitecture (BV/TV, Tb.N)” value [7]?
**A.** The value was “positive effect”.

**Q.** What about the “inhibition on PDE4 relative to R-tofisopam” value ([8]; S-tofisopam versus R-tofisopam) of the same compound?
**A.** Its value is “ten times higher”.

**Q.** For `CCOc1cc2c(cc1OCC)[C@@H](CC)C(C)=NN=C2c1ccc(OC)c(OC)c1` [R-etofisopam, (R) 1-(3,4-dimethoxy-phenyl)-4-methyl-5-ethyl-7,8-diethoxy-5H-2,3-benzodiazepine], which IC50 [2] is on record?
**A.** The IC50 was 1 to 100 nM.

**Q.** With `CCOc1cc2c(cc1OCC)[C@H](CC)C(C)=NN=C2c1ccc(OC)c(OC)c1` [S-etofisopam, 5S-(3,4-dimethoxyphenyl)-5-ethyl-4-methyl-7,8-diethoxy-5H-2,3-benzodiazepine] as the compound, how does the “inhibition of the other PDEs, especially PDE3, compared with PDE4 or PDE2” value [5] read?
**A.** Its value is “more weakly”.

**Q.** And the IC50 [2]?
**A.** Its IC50 is 1 to 100 nM.

**Q.** And the “effect on the bone quantity and microarchitecture (BV/TV, Tb.N)” value [7]?
**A.** The value was “Identity results”.

**Q.** And the IC50 ([8]; read-out: IC50 PDE4, substrate [3H]cAMP+cAMP 1 μM, 30 minutes at 30° C.)?
**A.** The IC50 was 20 nM.
